The text below walks through data of US9649303B2, “Methods and treatment for allergies and inflammation associated with gastrointestinal diseases” (MASTCELL PHARMACEUTICALS, INC., priority 2008, dated 2017).

Series [1] deals with sensitization to previously tolerated ovalbumin. Particulars: co-administered with ovalbumin; via elevation of the gastric pH; cited from earlier work.
In series [2] the test system is patients with a history of hazelnut allergy. Nature of the series: Oral food challenge with hazelnut flour under ketotifen or placebo (Example 1). The series is classed as in vivo, human. Here is the method: Twenty-four patients with adverse food reaction are included in this study. As controls, twelve patients matched for age and gender and a history of GERD (Group A) and another twelve patients matched for age and gender and no history of any gastrointestinal disorder (Group B) are included. The history of use of antacids and satisfaction are recorded for both groups.
To analyze hypersensitivity to hazelnut, a double-blind, randomized, dose-ranging study is carried out with patients with a history of hazelnut allergy manifested by urticaria, angioedema, respiratory tract symptoms or hypotension generally using the methods described in Israel et al., Am. J. Respir. Crit. Care Med., (2000) 164:75-80. Eligible patients include those with serum total IgE level of 30-1000 IU/mL and/or a positive skin-prick test to hazelnut. […]
Before enrollment, threshold level for reactivity to hazelnut allergen is confirmed by a screening double-blind, placebo-controlled oral food challenge. […] Vital signs are checked, chest auscultation is performed, and peak expiratory flow rates are monitored every 30 minutes during the food challenge and for at least 2 hours after the last dose or the abatement of any symptoms or signs. […]
Peak expiratory flow rates are monitored every 30 minutes during food challenge for at least 2 hours after the last does or abatement of any symptoms or signs. […]

In series [3] the test system is patients undergoing desensitization to airborne allergen (ragweed). Nature of the series: One-day rush immunotherapy with short ragweed extract after ketotifen or placebo pretreatment (Example 2). Type of series: in vivo, human. The note with it: ketotifen 1 mg b.i.d. plus ragweed immunotherapy vs immunotherapy alone. The method, then: To evaluate the effectiveness of mast cell stabilizer, e.g., ketotifen, in desensitization or immunotherapy, particularly RUSH immunotherapy, a randomized, double-blind, placebo-controlled study is performed. Patients are randomly assigned to 4 treatment groups (1:1:1:1). Pretreatment with either ketotifen, 1 mg, b.i.d., or placebo, is carried out for nine weeks to protect, prevent, inhibit or ameliorate allergic reaction, particularly to prevent, normalize or ameliorate gastrointestinal symptoms. One-day rush immunotherapy (week 0) is completed at least 3 weeks before the start of the ragweed season. On the day of rush immunotherapy, the patients receive 6 injections of either placebo or aqueous short ragweed extract. Ragweed dosing starts with a diluted extract containing 0.012 μg of Amb a 1 (a major allergen in ragweed) over a 3-hour period, reaching a maximum of 1.2 μg of Amb a 1. […]
The efficacy end point is determined by comparing the average daily allergy severity scores (measured on a scale of 0-3) between patients receiving ketotifen plus immunotherapy versus those who receive just immunotherapy alone. The score is calculated from the average of individual scores for symptoms of gastrointestinal disorders, e.g., abdominal pain, nausea, diarrhea, and/or heartburn.

Series [4] deals with patients undergoing desensitization to oral allergen (hazelnut). Briefly: Desensitization to oral allergen with hazelnut extract plus ketotifen (Example 3). The series is classed as in vivo, human. The note with it: ketotifen plus hazelnut extract immunotherapy vs immunotherapy alone. From the text:
To evaluate the efficacy of ketotifen in desensitization process against oral allergen such as hazelnut, a similar study as described in Example […] may be carried out except with the use of hazelnut extract rather than ragweed extract.

Series [5] has as its system adult patients who have a history of GERD. Briefly: GERD patients on omeprazole, ketotifen or both: GI symptoms and allergen-specific serum IgE (Example 4). The series is classed as in vivo, human. The method, then: The following study may be carried out to analyze the effectiveness of mast cell stabilizer in treating gastrointestinal disorders and/or as a prophylaxis against the development of allergy in patients at risk of developing sensitivity to such allergen, e.g., sensitivity to hazelnut, when exposed to it.
Sera of nine adult patients who have a history of GERD are collected. None of the patients report adverse reactions to inhalant or food allergens; however, IgE immunoblots are performed to screen their allergic state. Three patients from Group A are administered a proton pump inhibitor, e.g, omeprazole (Group A-1). Three patients from Group A are administered an oral dose of 0.5, 1, or 2 mg of ketotifen orally twice daily (Group A-2). […]
Serum IgE and Skin Tests in Patients: Sera are tested for allergen-specific IgE against hazelnut and inhalative allergens from tree pollen (eg, birch, hazel, and alder), grass pollen, weed pollen, molds, house dust mites, insect venoms, and animal dander. […] Additionally, total IgE is determined before and at the 3-mo time point. […]
Gastrointestinal Symptoms: Symptoms of gastrointestinal side effects such as GERD, nausea, abdominal pain, vomiting, gastritis and/or dyspepsia are recorded based on the severity and frequency of the symptoms. […]

The test system of series [6] is patients who have a history of GERD, unresponsive to conventional proton pump inhibitors or antacids. Nature of the series: GERD patients unresponsive to proton pump inhibitors or antacids: ketotifen vs omeprazole (Example 5). Type of series: in vivo, human. Particulars: ketotifen 0.5 mg, 1 mg, 2 mg twice daily or omeprazole 1×20 mg/d. The method, then: To evaluate the effectiveness of ketotifen in patients who have a history of GERD, but are unresponsive to conventional proton pump inhibitors or antacids, two groups of patients are tested as similar to Example 4. One group is administered ketotifen at 0.5 mg, 1 mg, 2 mg, twice daily. The second group is treated with omeprazole, 1×20 mg/d. Sera IgE are evaluated before and after administration of ketotifen or omeprazole and gastrointestinal symptoms are recorded based on severity and frequency of symptoms.

The test system of series [7] is OVA sensitized female BALB/c mice. Nature of the series: Sensitization to new allergen in a model of pre-existing food allergy (Example 6). Type of series: in vivo. Here is the method:
A study is conducted to determine whether atopic animals are more easily sensitized to a newly introduced allergen (e.g., hazel nut). Four groups of female BALB/c mice (7-8 weeks old) are sensitized by intraperitoneal (IP) injections 2 weeks apart with ovalbumin (OVA; 50 μg) in 1.3% aluminum hydroxide (200 μl) followed 2 weeks later by 7 seven intragastric challenges (every other day) with saline or 5, 10, or 50 mg OVA, a selected dose of hazel nut, or combination of OVA and hazelnut. Endpoints include observance of diarrhea after intragastric challenge, Serum total and antigen specific IgE and IgG 1, gut to body weight ratio, intestinal permeability, and histological evaluation are performed. […] A second experiment assesses the ability of ketotifen to inhibit the induction of allergy to a newly introduced food allergen in animals with a pre-existing gastrointestinal allergy. […] A group of BALB/c mice similarly sensitized to OVA, but continuing to receive intragastric hazel nut in the absence of intragastric OVA fails to develop an observable gastrointestinal allergy phenotype.

The subject of series [8] is patients who have a diagnosis of eosinophilic esophagitis and food allergy. Nature of the series: Eosinophilic esophagitis: ketotifen oral tablet vs topical gel (Example 7). Type of series: in vivo, human. Here is the method: To evaluate the effectiveness of ketotifen in patients who have a diagnosis of eosinophilic esophagitis and food allergy, two groups of patients will be tested. One group is orally administered ketotifen at 0.5 mg, 1 mg, or 2 mg, twice daily as a tablet.

The next series concerns PAF production. The note with it: cited from earlier work.
Another series has as its system eosinophils. Particulars: cited from earlier work.
In series [9] the test system is a patient with eosinophilic esophagitis. The note with it: elimination of diet including eggs, treatment with ketotifen and montelukast; cited from earlier work.

Consider sucralfate, for which the “sensitization to previously tolerated ovalbumin” value in series [1] is “caused sensitization to previously tolerated ovalbumin”.

For the molecule `CN1CCC(=C2c3ccccc3CC(=O)c3sccc32)CC1` [ketotifen], in [2] (GERD patients, Group A1 (ketotifen) vs Group A2 (placebo)), the “reflux symptom reporting during the study” value was “significantly lower”. For the same molecule, the “tolerance (severity of reaction) to hazelnut upon oral ingestion” value in [2] (ketotifen 0.5, 1 or 2 mg orally twice daily, Group A-1 and B-1 compared to placebo groups A-2 and B-2, challenge at two, four and six weeks) was “significant increased tolerance”. The “adverse events of gastrointestinal disorders” value in [3] and in series [4] was “fewer adverse events of gastrointestinal disorders” in each case. Besides, the allergy severity scores entry in [3] (scale of 0-3) and in [4] was “significantly improved allergy severity scores” each time. In [5] (after onset of treatment, Groups A-1, A-2, A-3), the “hazelnut-specific (and other allergen specific) IgE in blood sera” value is “improved GERD symptoms and hazelnut-specific IgE”. Moreover, the GERD symptoms result in [5] (omeprazole 1×20 mg/d (A-1), ketotifen 0.5, 1 or 2 mg orally twice daily (A-2), both (A-3)) is “improved GERD symptoms”; in series [6], “improved GERD symptoms”. Further, in series [6], the “allergen specific IgE in blood sera” value was “few new allergen specific IgE”. Moreover, the “development of new sensitivity to hazel nut” value in [7] (OVA sensitized mice receiving intragastric hazelnut with ketotifen or OVA plus hazelnut with ketotifen) was “fail to develop new sensitivity to hazel nut”. In series [7] (female BALB/c mice sensitized to OVA), the “gastrointestinal allergy phenotype upon OVA intragastric challenge” value is listed as “significantly suppresses the gastrointestinal allergy phenotype”. Further, the patient-reported symptoms result in [8] (ketotifen 0.5 mg, 1 mg or 2 mg twice daily as oral tablet) is on record as “partial improvement of symptoms”. In [8] (oral tablet vs topical gel vs topical corticosteroids), the “overall effectiveness compared between formulations” value is “inferior to those observed with the topical gel formulation”. Further, the blood eosinophilia entry in series [8] (oral tablet, blood analysis) is on record as “decreased eosinophilia”. For the same molecule, the “eosinophils, mast cells and degranulation in esophageal biopsies” value in series [8] (oral tablet, compared to pre-treatment biopsies) was “fewer numbers of eosinophils and mast cells and less degranulation”. For the same molecule, in the series with PAF production, the PAF production entry is “suppresses PAF production”. The eosinophil chemotaxis entry with eosinophils was “inhibiting chemotaxis”. Also, the clinical outcome in series [9] is “clinical relief”.
